Data set [1] can be described thus: PAMPA-BBB permeability assay. The text has this:
In the present study we used a Parallel Artificial Membrane Permeation Assay (PAMPA) with a membrane mimicking the BBB phospholipidic composition (PAMPA-BBB) to evaluate and predict passive, transcellular permeability of the mescaline-NBOMe, 25B-NBOMe and 25N-NBOMe drugs.
The PiON inc database software was used for data analysis.

Data set [2] can be described thus: Chromatographic Hydrophobicity Index (CHI) by HPLC, CHILogD7.4. The following applies: pH 7.4.
Description: The CHI values at pH 7.4 were determined using an experimental protocol described elsewhere [23, 25]. The CHI values were assessed from experimental retention times (tR) of the compounds under study and a mixture of reference compounds obtained on the HPLC system with a Luna C18 (2) column (150 × 4.6 mm, 5 µm, Phenomenex, CA, USA). […] Mobile phase A was 10 mM ammonium acetate (pH 7.4) and mobile phase B was acetonitrile. The following gradient program was applied: 0–7 min 0–100% B, 7–15 min 100% B, 15–17 min 100–0% B. The flow was 1 mL/min, and the injection volume was 40 μL.
Data set [3] has as its system differentiated SH-SY5Y cells. The data set is described as follows: Neutral red uptake cytotoxicity assay, differentiated SH-SY5Y. The format is cell-based. The following applies: 24 h; for Top (maximal effect): maximum cell death of fitted curve; for EC50: Homo sapiens, cell death curves 0–1500 µM, read-out: EC50 (half-maximum-effect concentration). As for the experimental part: SH-SY5Y cells were acquired from the American Type Culture Collection (Manassas, VA, USA). Cells were cultured in 25 cm^2 flasks using DMEM—high glucose supplemented with 10% heat-inactivated FBS, 1% MEM non-essential amino acids and 1% penicillin/streptomycin mixture, and maintained in a 5% CO2–95% air atmosphere, at 37 °C, until 80% confluence. Cells were routinely subcultured using trypsin-EDTA and, to avoid phenotypic alterations, were always used between passages 23 and 29. In all experiments, the cells were seeded at a density of 25,000 cells/cm^2. As previously described, to achieve a dopaminergic neuronal phenotype, the cells were seeded in a complete DMEM medium containing 10 μM retinoic acid and, after 3 days, 80 nM TPA was added to the cultures for another 3 days.
Neutral red uptake and resazurin reduction assays were performed after exposure of differentiated SH-SY5Y and HepG2 cells to the drugs under study. To obtain a concentration–response curve, a broad concentration range (0–2000 µM) was investigated, and cytotoxicity was evaluated 24 h after exposure in 96-well cell culture plates. As previously described, neutral red uptake assay is based on the incorporation of neutral red dye into the lysosomes of viable cells and the amount of dye incorporated represents the cells’ lysosomal functionality, and resazurin reduction assay is based on the irreversible reduction of resazurin dye to the fluorescent resorufin product by metabolically active cells.
Briefly, 24 h after being exposed to different concentrations of the compounds, differentiated SH-SY5Y cells were incubated with either neutral red (50 µg/mL) or resazurin (10 µg/mL) solutions for 90 min, at 37 °C, in a 5% CO2–95% air atmosphere. For HepG2 cells, 24 h after the exposure to the tested drugs, the cells were incubated with either neutral red (50 µg/mL) or resazurin (10 µg/mL) solutions for 45 and 60 min, respectively, at 37 °C, in a 5% CO2–95% air atmosphere.
In the neutral red uptake assay, at the end of the incubation period, the cell culture medium was removed and a solution of absolute ethyl alcohol/distilled water (1:1) with 5% acetic acid was added to extract the dye absorbed only by the viable cells. The absorbance was measured at 540 nm in a multi-well plate reader (PowerWaveX BioTek Instruments, Winooski, VT, USA). In the resazurin assay, at the end of the incubation period, the fluorescence was measured at 530 nm excitation and 590 nm emission wavelengths in a multi-well plate reader (PowerWaveX BioTek Instruments, Winooski, VT, USA).
The results were expressed as a percentage of control cells. At least four independent experiments were performed, in triplicate. For differentiated SH-SY5Y cells, the neutral red uptake assay was identified as the most sensitive assay and, therefore, used for the subsequent experiments. On the other hand, for HepG2 cells, the resazurin reduction assay was identified as the most sensitive assay and, therefore, used for the subsequent experiments.

Data set [4] relates to differentiated SH-SY5Y cells. The data set is described as follows: Intracellular ATP (luciferin-luciferase bioluminescence assay). The format is cell-based. The following applies: 24 h, 500 μM. Here is the method: Intracellular ATP levels were determined, as previously described, through a bioluminescence reaction with luciferase, which catalyzes the formation of light from ATP and luciferin.
Intracellular adenosine triphosphate (ATP) was quantified through the bioluminescent D-luciferin-luciferase assay. The samples used for the intracellular ATP quantification were prepared as described for the “Intracellular Total Glutathione Quantification” assay. The acidic samples and standards (ATP standards prepared in 5% HClO4) were neutralized with ice-cold 0.76 M KHCO3 (1:1) and centrifuged (13,000× g, 10 min at 4 °C). Afterwards, 75 µL of the supernatants were transferred to a white opaque 96-well plate, followed by the addition of 75 µL of luciferin-luciferase solution (0.15 mM luciferin and 3 × 10^6 light unit’s luciferase/mL prepared in a 7.6 pH Tris-Glycine buffer solution: 1 mM Trizma; 10 mM MgSO4; 50 mM glycine; 0.55 mM EDTA and 1% BSA), protected from light. The samples’ bioluminescence (560 nm) was immediately measured in a multi-well plate reader (PowerWaveX BioTek Instruments, Winooski, VT, USA). The ATP content in the samples was normalized to the protein content (as previously described in “Intracellular Reduced Glutathione Quantification”) and the results were expressed as a percentage of control cells. At least four independent experiments were performed, in duplicate.

We go through five compounds from article PMC10458253, “Unraveling the In Vitro Toxicity Profile of Psychedelic 2C Phenethylamines and Their N-Benzylphenethylamine (NBOMe) Analogues” (Pharmaceuticals, 2023).

For the compound `COc1ccccc1CNCCc1cc(OC)c(OC)c(OC)c1` [Mescaline-NBOMe, 3,4,5-Trimethoxy-N-(2-methoxybenzyl)-β-phenethylamine], the “−Log Pe ± SD” value in data set [1] was 4.7 ± 0.49. This compound registered a chromatographic logD in data set [2] of 1.34. Moreover, in data set [3], the “Bottom (baseline)” value was determined as 1.218, the “Hill Slope” value is 2.681, the “Top (maximal effect)” value was 98.57 and the EC50 stood at 406 µM.
On to `COc1cc(CCN)c(OC)cc1Br` [2C-B, 4-Bromo-2,5-dimethoxy-β-phenethylamine], for which the chromatographic logD in data set [2] came to 0.7. Moreover, in data set [3], the “Bottom (baseline)” value was 1.900, the “Hill Slope” value stood at 1.746, the “Top (maximal effect)” value turned out to be 93.68 and the EC50 was found to be 165 µM.
With `COc1cc(CCNCc2ccccc2OC)c(OC)cc1Br` [25B-NBOMe, 4-Bromo-2,5-dimethoxy-N-(2-methoxybenzyl)-β-phenethylamine], the “−Log Pe ± SD” value in data set [1] is 4.4 ± 0.36. The compound further yielded a chromatographic logD in data set [2] of 2.32. Besides, the ATP intracellular levels result in data set [4] is “completely depleted intracellular ATP levels”. Also, in data set [3], the “Bottom (baseline)” value is reported as 0.0825, the “Hill Slope” value amounted to 2.687, the “Top (maximal effect)” value amounted to 87.85 and the EC50 turned out to be 33.9 µM.
Regarding `COc1cc([N+](=O)[O-])c(OC)cc1CCNCc1ccccc1OC` [25N-NBOMe, 4-Nitro-2-dimethoxy-N-(2-methoxybenzyl)-β-phenethylamine], the “−Log Pe ± SD” value in data set [1] was determined as 4.6 ± 0.34. Moreover, in data set [2], the chromatographic logD stood at 1.96. In data set [3], the “Bottom (baseline)” value is recorded as 2.841, the “Hill Slope” value is 5.758, the “Top (maximal effect)” value is 87.38 and the EC50 turned out to be 125 µM.
Regarding `COc1cc([N+](=O)[O-])c(OC)cc1CCN` [2C-N, 2,5-dimethoxy-4-nitrophenethylamine], in data set [2], the chromatographic logD was found to be 0.37. Moreover, the ATP intracellular levels entry in data set [4] was “about 60 % of control cells”. Moreover, in data set [3], the “Bottom (baseline)” value turned out to be 6.911, the “Hill Slope” value is listed as 2.691, the “Top (maximal effect)” value is “≈100” and the EC50 turned out to be 733 µM.
